US6825317B2, “Cyclic tetrapeptide derivatives and pharmaceutical uses thereof” (Sumitomo Pharmaceuticals Company, Limited, priority 1999, dated 2004)
Non-standard residues stand in square brackets, D forms with d. Residues, ends and D or L forms follow the SMILES beside them. ξ: configuration not given here. *: point of attachment. Asu = N[C@@H](CCCCCC(=O)O)C(=O)O; Cha = N[C@@H](CC1CCCCC1)C(=O)O; Ile(3ξ) = CCC(C)[C@H](N)C(=O)O; dCha = N[C@H](CC1CCCCC1)C(=O)O; Aic = NC1(C(=O)O)Cc2ccccc2C1; Ac8c = NC1(C(=O)O)CCCCCCC1; Ac7c = NC1(C(=O)O)CCCCCC1; Pip = O=C(O)[C@@H]1CCCCN1; dPip = O=C(O)[C@H]1CCCCN1; Ac6c = NC1(C(=O)O)CCCCC1; Ac5c = NC1(C(=O)O)CCCC1; Aib = CC(C)(N)C(=O)O; NHOH = ON*

What was measured:
[1] = system: MHC class-I molecule expression on B16/BL6 cells; assay: MHC class-I molecule expression-promoting activity; type: cell-based, mouse; conditions: concentration giving twice-promoted MHC class-I expression relative to untreated control, 72 hours culture with compound
Experimental: The cyclic tetrapeptide derivatives of the present invention were investigated for their MHC class-I molecule expression-promoting actions in the following test.
The cancer cells used were mouse melanoma, B16/BL6 cells, provided by the National Cancer Institute, U.S.A. Said cells were cultured in MEM media supplemented with 10% FBS at 37° C., 5% CO2 in an humidified incubator.
A compound to be tested was preliminarily dissolved in dimethylsulfoxide (DMSO) and adjusted to a concentration of 100 mM or 10 mM (stock solution). […] Trichostatin A was used as a positive control compound for MHC class-I molecule expression-promoting action due to histone deacetylase enzyme-inhibiting activity. DMSO used as a solvent for the stock solution of a test compound would inevitably be introduced into the medium in the test; however, it had been separately confirmed not to affect the test results in amounts within the range used in the test.
Said B16/BL6 cells were inoculated on a 96-well microplate at a cell density of 5000 cells per well, each well containing 200 μAl of said medium. After culturing for 24 hours, 10 μl of a sample containing a given amount of the stock solution of a test compound which had been diluted in the medium was added and cultured for additional 72 hours. Thereafter, each well was washed once with PBS (phosphate buffered saline) and floating cells and the medium were removed. Then, the well was treated with 0.1% glutaraldehyde solution for 3 minutes to fix the cells.
The amount of MHC class-I molecule expressed on the surface of the fixed cells was measured as follows. Anti-H-2K^bD^bD^d antibody, which is an antibody against mouse MHC class-I molecule (commercially available from Meiji Milk Co., Ltd), was used as a primary antibody, biotinylated anti-mouse IgG+M (commercially available from Chemicon) was used as a secondary antibody, and streptavidin-galactosidase conjugate (commercially available from BRL) was reacted as a labeling enzyme. The amount of the thus labeled enzyme-galactosidase was measured in a microplate reader by recording the fluorescent intensity (excitation: 365 nm, fluorescence: 450 nm) resulting from the enzyme reaction product using 4-methylumbelliferyl-D-galactoside (commercially available from Nacalai Tesque) as a substrate. A fluorescence intensity measured for another well to which no test compound was added and which was treated in a similar manner without adding said primary antibody was used as a background level. The value obtained by subtracting said background level from the actually measured value (an apparent value including the background level) was defined as a true measurement reflecting the amount of expressed MHC class-I molecule.
A group without the addition of any test compound was used as a control group and the measurement of MHC class-I molecule expressed in said group was used as a standard value. The amount of MHC class-I molecule expressed at an addition concentration of each test compound was shown as a relative amount based on said standard value set to one (1). The strength of each test compound activity was compared at a concentration which provides twice-promoted expression (C×2).

[2] = system: histone deacetylase partially purified from B16/BL6 cells; assay: Inhibitory activity against histone deacetylase enzyme; type: biochemical, mouse; conditions: crude enzyme from B16/BL6 cells, [3H]acetylated histone H4 peptide substrate, 37 for 3 hours; read-out: 50% inhibitory concentration
Experimental: The preparation of histone deacetylase was performed essentially according to the method of Yoshida et al. (J. Biol. Chem., 265, 17174-17179, 1990). The enzyme to be used was partially purified from B16/BL6 cells. The cells were suspended in HDA buffer (15 mM potassium phosphate, 5% glycerol, 0.2 mM EDTA, 1 mM 2-mercaptoethanol, pH 7.5), homogenized and centrifuged (2500× g, 10 min) to collect the nuclei, which were then homogenized in the same buffer containing 1 M (NH4)2SO4. After ultrasonic disruption and centrifugation, the concentration of (NH4)2SO4 in the collected supernatant was increased to 3.5 M to precipitate histone deacetylase. This precipitate was re-dissolved in HDA buffer, subjected to gel filtration to replace the solvent by HDA buffer, and used as a crude histone deacetylase enzyme solution.
As a substrate, a synthetic substrate peptide, [^3H]acetylated histone H4 peptide was used. This [^3H]acetylated histone H4 peptide was obtained by synthesizing the N-terminal peptide of histone H4; […] (SEQ ID NO: 1: the C-terminal being cysteine) and then radioactively acetylating with ^3H-acetic anhydride.
An assay was performed by incubating the synthetic substrate solution and the enzyme solution at 37 for 3 hours in the presence of a compound to be tested (reaction volume, 100 μl). The reaction was stopped by adding 25 μl of 1 M HCl and 0.2 M acetic acid, and [^3H]acetate cleaved by the enzyme reaction was extracted with ethyl acetate for radioactivity measurement. For a control group, the same procedure was repeated without addition of any test compound to the reaction system. Each test compound was evaluated for a concentration required to cause 50% inhibition of the histone deacetylase enzyme activity in the control group (50% inhibitory concentration).

Row | Structure (SMILES) | IC50 [2] | Twice promoting concentration Cx2 [1]
1 | O=C(CCCCC[C@@H]1NC(=O)[C@H]2CCCN2C(=O)[C@H](Cc2ccccc2)NC(=O)C2(CCc3ccccc32)NC1=O)NO (single isomer, unassigned) [CHAP83, cyclo(-L-Asu(NHOH)-1Ain(s)-L-Phe-D-Pro-)] | 1.95 nM | 2.29 nM
2 | O=C(CCCCC[C@@H]1NC(=O)[C@H]2CCCCN2C(=O)[C@H](CC2CCCCC2)NC(=O)[C@@H](CC2CCCCC2)NC1=O)NO [CHAP79, cyclo(-L-Asu(NHOH)-D-Cha-L-Cha-D-Pip-)] (cyclo([Asu](NHOH)[dCha][Cha][dPip])) | 3.9 nM | 2.79 nM
3 | CC(C)C[C@@H]1NC(=O)[C@@H](CC2CCCCC2)NC(=O)[C@H](CCCCCC(=O)NO)NC(=O)[C@@H]2CCCCN2C1=O [CHAP84, cyclo(-L-Asu(NHOH)-D-Cha-L-Leu-L-Pip-)] (cyclo([Asu](NHOH)[dCha]L[Pip])) | 2.22 nM | 5.65 nM
4 | CCC(C)[C@@H]1NC(=O)[C@@H](CC2CCCCC2)NC(=O)[C@H](CCCCCC(=O)NO)NC(=O)[C@@H]2CCCCN2C1=O (stereo partly drawn) [CHAP87, cyclo(-L-Asu(NHOH)-D-Cha-L-Ile-L-Pip-)] (cyclo([Asu](NHOH)[dCha][Ile(3ξ)][Pip])) | 1.98 nM | 5.39 nM
5 | CC[C@H](C)[C@@H]1NC(=O)[C@@H](CC2CCCCC2)NC(=O)[C@H](CCCCCC(=O)NO)NC(=O)[C@H]2CCCCN2C1=O [CHAP86, cyclo(-L-Asu(NHOH)-D-Cha-L-Ile-D-Pip-)] (cyclo([Asu](NHOH)[dCha]I[dPip])) | 3.14 nM | 3.29 nM
6 | CC(C)C[C@@H]1NC(=O)[C@@H](CC2CCCCC2)NC(=O)[C@H](CCCCCC(=O)NO)NC(=O)[C@H]2CCCCN2C1=O [CHAP85, cyclo(-L-Asu(NHOH)-D-Cha-L-Leu-D-Pip-)] (cyclo([Asu](NHOH)[dCha]L[dPip])) | 1.96 nM | 2.26 nM
7 | O=C(CCCCC[C@@H]1NC(=O)[C@@H]2CCCCN2C(=O)[C@H](CC2CCCCC2)NC(=O)[C@@H](CC2CCCCC2)NC1=O)NO [CHAP78, cyclo(-L-Asu(NHOH)-D-Cha-L-Cha-L-Pip-)] (cyclo([Asu](NHOH)[dCha][Cha][Pip])) | 3.88 nM | 2.35 nM

Second part, led by results:

Row | IC50 [2] | Structure (SMILES) | Twice promoting concentration Cx2 [1]
8 | 5.17 nM | CC1(C)NC(=O)[C@H](CCCCCC(=O)NO)NC(=O)[C@H]2CCCN2C(=O)[C@H](Cc2ccccc2)NC1=O [CHAP15, cyclo(-L-Asu(NHOH)-Aib-L-Phe-D-Pro-), reference compound] (cyclo([Aib]F[dP][Asu](NHOH))) | 33.2 nM
9 | 2.19 nM | O=C(CCCCC[C@@H]1NC(=O)[C@H]2CCCN2C(=O)[C@H](Cc2ccccc2)NC(=O)C2(CCCCC2)NC1=O)NO [CHAP55, cyclo(-L-Asu(N-HOH)-Acc6-L-Phe-D-Pro-)] (cyclo([Ac6c]F[dP][Asu](NHOH))) | 5.38 nM
10 | 1.2 nM | O=C(CCCCC[C@@H]1NC(=O)[C@H]2CCCCN2C(=O)[C@H](Cc2ccccc2)NC(=O)C2(Cc3ccccc3C2)NC1=O)NO [CHAP91, cyclo(-L-Asu(NHOH)-2Ain-L-Phe-D-Pip-)] (cyclo([Aic]F[dPip][Asu](NHOH))) | 2.48 nM
11 | 2.14 nM | O=C(CCCCC[C@@H]1NC(=O)[C@H]2CCCN2C(=O)[C@H](Cc2ccccc2)NC(=O)C2(CCCCCC2)NC1=O)NO [CHAP71, cyclo(-L-Asu(NHOH)-Acc7-L-Phe-D-Pro-)] (cyclo([Asu](NHOH)[Ac7c]F[dP])) | 2.76 nM
12 | 3.99 nM | O=C(CCCCC[C@@H]1NC(=O)[C@H]2CCCN2C(=O)[C@H](Cc2ccccc2)NC(=O)C2(CCCCCCC2)NC1=O)NO [CHAP76, cyclo(-L-Asu(NHOH)-Acc8-L-Phe-D-Pro-)] (cyclo([Asu](NHOH)[Ac8c]F[dP])) | 1.88 nM
13 | 1.12 nM | O=C(CCCCC[C@@H]1NC(=O)[C@H]2CCCN2C(=O)[C@H](Cc2ccccc2)NC(=O)C2(CCc3ccccc32)NC1=O)NO (single isomer, unassigned) [CHAP82, cyclo(-L-Asu(NHOH)-1Ain(f)-L-Phe-D-Pro-)] | 2.69 nM
14 | 0.98 nM | O=C(CCCCC[C@@H]1NC(=O)[C@H]2CCCN2C(=O)[C@H](Cc2ccccc2)NC(=O)C2(Cc3ccccc3C2)NC1=O)NO [CHAP81, cyclo(-L-Asu(NHOH)-2Ain-L-Phe-D-Pro-)] (cyclo([Aic]F[dP][Asu](NHOH))) | 1.29 nM
15 | 3.02 nM | O=C(CCCCC[C@@H]1NC(=O)[C@H]2CCCN2C(=O)[C@H](Cc2ccccc2)NC(=O)C2(CCCC2)NC1=O)NO [CHAP54, cyclo(-L-Asu(NHOH)-Acc5-L-Phe-D-Pro-)] (cyclo([Ac5c]F[dP][Asu](NHOH))) | 5.67 nM
16 | 2.75 nM | O=C(CCCCC[C@@H]1NC(=O)[C@H]2CCCCN2C(=O)[C@H](Cc2ccccc2)NC(=O)C2(CCCCCCC2)NC1=O)NO [CHAP90, cyclo(-L-Asu(NHOH)-Acc8-L-Phe-D-Pip-)] (cyclo([Asu](NHOH)[Ac8c]F[dPip])) | 3.96 nM
